Test results reported in ChEMBL document CHEMBL1123774, “Peptide quantitative structure-activity relationships, a multivariate approach” (J Med Chem, 1987).
Peptide text beside a SMILES is read from it.

Assay: Bradykinin potentiating activity was determined as the activity index by PLS model

| Compound | Log RAI |
| --- | --- |
| C[C@H](N)C(=O)N[C@@H](C)C(=O)N[C@@H](C)C(=O)N[C@@H](C)C(=O)N[C@@H](C)C(=O)O | -0.1 |
| C[C@H](NC(=O)[C@H](Cc1c[nH]c2ccccc12)NC(=O)[C@H](CCCCN)NC(=O)[C@@H](N)CCC(=O)O)C(=O)N1CCC[C@H]1C(=O)O (H-EKWAP-OH) | 1.3 |
| NC(N)=NCCC[C@H](NC(=O)[C@H](Cc1ccccc1)NC(=O)[C@@H]1CCCN1C(=O)[C@H](CO)NC(=O)[C@@H](N)Cc1ccccc1)C(=O)O (H-FSPFR-OH) | 0.64 |
| CC(C)C[C@H](N)C(=O)N[C@@H](CCC(=O)O)C(=O)N[C@@H](C)C(=O)N[C@@H](C)C(=O)N[C@@H](CCCCN)C(=O)O (H-LEAAK-OH) | 0.4 |
| O=C(CNC(=O)[C@@H]1CCCN1)N[C@@H](Cc1ccccc1)C(=O)N[C@@H](CO)C(=O)N1CCC[C@H]1C(=O)O (H-PGFSP-OH) | 0.9 |
| C[C@H](NC(=O)[C@H](Cc1c[nH]c2ccccc12)NC(=O)[C@H](CCCCN)NC(=O)[C@@H](N)CCCN=C(N)N)C(=O)N1CCC[C@H]1C(=O)O (H-RKWAP-OH) | 1.98 |
| CC(C)[C@H](N)C(=O)N[C@@H](C)C(=O)N[C@@H](C)C(=O)N[C@@H](Cc1c[nH]c2ccccc12)C(=O)N[C@@H](CCCCN)C(=O)O (H-VAAWK-OH) | 0.23 |
| CC(C)[C@H](N)C(=O)N[C@@H](C)C(=O)N[C@@H](Cc1c[nH]c2ccccc12)C(=O)N[C@@H](C)C(=O)N[C@@H](CCCCN)C(=O)O (H-VAWAK-OH) | 1.45 |
| CC(C)[C@H](N)C(=O)N[C@@H](CCC(=O)O)C(=O)N[C@@H](C)C(=O)N[C@@H](C)C(=O)N[C@@H](CCCCN)C(=O)O (H-VEAAK-OH) | 0.51 |
| CC(C)[C@H](N)C(=O)N[C@@H](CCC(=O)O)C(=O)N[C@@H](C)C(=O)N[C@@H](C)C(=O)N1CCC[C@H]1C(=O)O (H-VEAAP-OH) | 0.18 |
| CC(C)[C@H](N)C(=O)N[C@@H](CCC(=O)O)C(=O)N[C@@H](C)C(=O)N[C@@H](CO)C(=O)N[C@@H](CCCCN)C(=O)O (H-VEASK-OH) | 0.2 |
| CC(C)[C@H](N)C(=O)N[C@@H](CCC(=O)O)C(=O)NCC(=O)NCC(=O)N[C@@H](CCCCN)C(=O)O (H-VEGGK-OH) | -1 |
| CC(C)[C@H](N)C(=O)N[C@@H](CCC(=O)O)C(=O)N[C@@H](Cc1c[nH]cn1)C(=O)N[C@@H](C)C(=O)N[C@@H](CCCCN)C(=O)O (H-VEHAK-OH) | 1.53 |
| CC(C)[C@H](N)C(=O)N[C@@H](CCC(=O)O)C(=O)N[C@@H](Cc1c[nH]c2ccccc12)C(=O)N[C@H](C(=O)N[C@@H](CCCCN)C(=O)O)C(C)C (H-VEWVK-OH) | 1.71 |
| CC(C)[C@H](N)C(=O)N[C@@H](CCCCN)C(=O)N[C@@H](Cc1c[nH]c2ccccc12)C(=O)N[C@@H](C)C(=O)N[C@@H](C)C(=O)O (H-VKWAA-OH) | 1.71 |
| CC(C)[C@H](N)C(=O)N[C@@H](Cc1c[nH]c2ccccc12)C(=O)N[C@@H](C)C(=O)N[C@@H](C)C(=O)N[C@@H](CCCCN)C(=O)O (H-VWAAK-OH) | 0.04 |

Next, values leading:

| Log RAI | Compound |
| --- | --- |
| 0.46 | C[C@H](N)C(=O)N[C@@H](C)C(=O)N[C@@H](Cc1ccc(O)cc1)C(=O)N[C@@H](C)C(=O)N[C@@H](C)C(=O)O |
| 0.75 | C[C@H](N)C(=O)N[C@@H](C)C(=O)N[C@@H](Cc1c[nH]c2ccccc12)C(=O)N[C@@H](C)C(=O)N[C@@H](C)C(=O)O (H-AAWAA-OH) |
| 0.3 | C[C@H](NC(=O)[C@H](C)NC(=O)[C@H](CCC(=O)O)NC(=O)[C@@H](N)Cc1ccccc1)C(=O)N[C@@H](CCCCN)C(=O)O (H-FEAAK-OH) |
| -0.52 | C[C@H](NC(=O)[C@H](C)NC(=O)[C@H](CCC(=O)O)NC(=O)CN)C(=O)N[C@@H](CCCCN)C(=O)O (H-GEAAK-OH) |
| -0.1 | CC(C)[C@H](N)C(=O)N[C@@H](C)C(=O)N[C@@H](C)C(=O)N[C@@H](C)C(=O)N[C@@H](CCCCN)C(=O)O (H-VAAAK-OH) |
| 1.43 | CC(C)[C@H](N)C(=O)N[C@@H](C)C(=O)N[C@@H](Cc1c[nH]c2ccccc12)C(=O)N[C@@H](C)C(=O)N[C@@H](C)C(=O)O (H-VAWAA-OH) |
| 1.57 | CC(C)[C@H](N)C(=O)N[C@@H](CCC(=O)O)C(=O)N[C@@H](Cc1ccccc1)C(=O)N[C@@H](C)C(=O)N[C@@H](CCCCN)C(=O)O (H-VEFAK-OH) |
| 0.59 | CC(C)C[C@H](NC(=O)[C@H](CCC(=O)O)NC(=O)[C@@H](N)C(C)C)C(=O)N[C@@H](C)C(=O)N[C@@H](CCCCN)C(=O)O (H-VELAK-OH) |
| 0.28 | CC(C)[C@H](N)C(=O)N[C@@H](CCC(=O)O)C(=O)N[C@@H](CO)C(=O)N[C@@H](C)C(=O)N[C@@H](CCCCN)C(=O)O (H-VESAK-OH) |
| 0 | CC(C)[C@H](N)C(=O)N[C@@H](CCC(=O)O)C(=O)N[C@@H](CO)C(=O)N[C@@H](CO)C(=O)N[C@@H](CCCCN)C(=O)O (H-VESSK-OH) |
| 2.73 | CC(C)[C@H](N)C(=O)N[C@@H](CCC(=O)O)C(=O)N[C@@H](Cc1c[nH]c2ccccc12)C(=O)N[C@@H](C)C(=O)N[C@@H](CCCCN)C(=O)O (H-VEWAK-OH) |
| 0.11 | CC(C)[C@H](N)C(=O)N[C@@H](CCCCN)C(=O)N[C@@H](C)C(=O)N[C@@H](C)C(=O)N[C@@H](CCCCN)C(=O)O (H-VKAAK-OH) |
| 2.35 | CC(C)[C@H](N)C(=O)N[C@@H](CCCCN)C(=O)N[C@@H](Cc1c[nH]c2ccccc12)C(=O)N[C@@H](C)C(=O)N1CCC[C@H]1C(=O)O (H-VKWAP-OH) |
